Data from patent US8198273B2, “Compounds and methods for kinase modulation, and indications therefor” (Plexxikon Inc., priority 2009, dated 2012).

What was measured:
B-Raf V600E = B-Raf V600E (Homo sapiens, UniProt P15056, V600E); assay: B-Raf V600E biochemical kinase inhibition (AlphaScreen, biotin-MEK1 substrate); details: 100 μM ATP
Summary of the method: (§1)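 Eight-point compound series (made from a 0.1 mM DMSO stock) tested against each Raf enzyme with biotin-MEK1 substrate and 100 μM final ATP.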

c-Raf-1 = c-Raf-1 (Homo sapiens, UniProt P04049); assay: c-Raf-1 biochemical kinase inhibition (AlphaScreen, biotin-MEK1 substrate); details: 100 μM ATP
Sequence of c-Raf-1 (P04049 whole entry): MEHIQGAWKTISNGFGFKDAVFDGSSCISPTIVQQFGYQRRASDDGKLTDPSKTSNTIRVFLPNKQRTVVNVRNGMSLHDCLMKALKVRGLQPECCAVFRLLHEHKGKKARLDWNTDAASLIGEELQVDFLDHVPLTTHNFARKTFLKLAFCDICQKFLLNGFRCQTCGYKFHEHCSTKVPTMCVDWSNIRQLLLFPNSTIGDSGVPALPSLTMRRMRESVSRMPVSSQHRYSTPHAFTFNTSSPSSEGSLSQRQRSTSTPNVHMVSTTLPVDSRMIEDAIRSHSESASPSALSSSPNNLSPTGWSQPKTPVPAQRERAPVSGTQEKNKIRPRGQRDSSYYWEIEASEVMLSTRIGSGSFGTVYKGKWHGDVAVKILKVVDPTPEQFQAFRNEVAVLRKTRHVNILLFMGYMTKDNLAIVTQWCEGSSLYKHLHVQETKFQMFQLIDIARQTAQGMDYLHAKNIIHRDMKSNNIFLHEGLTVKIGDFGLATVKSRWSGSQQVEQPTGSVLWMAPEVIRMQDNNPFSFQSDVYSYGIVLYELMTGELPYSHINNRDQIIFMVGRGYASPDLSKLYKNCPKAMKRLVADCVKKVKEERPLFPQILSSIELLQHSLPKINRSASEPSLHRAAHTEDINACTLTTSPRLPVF
Summary of the method: as §1

CYP1A2 = biological target: T1, CYP1A2 (Homo sapiens, UniProt P05177); assay: CYP1A2 inhibition (fluorescent substrate); format: in vitro ADME; details: CYP1A2, CEC substrate; read-out: Cyp IC50 1A2
T1 sequence (P05177 1-516): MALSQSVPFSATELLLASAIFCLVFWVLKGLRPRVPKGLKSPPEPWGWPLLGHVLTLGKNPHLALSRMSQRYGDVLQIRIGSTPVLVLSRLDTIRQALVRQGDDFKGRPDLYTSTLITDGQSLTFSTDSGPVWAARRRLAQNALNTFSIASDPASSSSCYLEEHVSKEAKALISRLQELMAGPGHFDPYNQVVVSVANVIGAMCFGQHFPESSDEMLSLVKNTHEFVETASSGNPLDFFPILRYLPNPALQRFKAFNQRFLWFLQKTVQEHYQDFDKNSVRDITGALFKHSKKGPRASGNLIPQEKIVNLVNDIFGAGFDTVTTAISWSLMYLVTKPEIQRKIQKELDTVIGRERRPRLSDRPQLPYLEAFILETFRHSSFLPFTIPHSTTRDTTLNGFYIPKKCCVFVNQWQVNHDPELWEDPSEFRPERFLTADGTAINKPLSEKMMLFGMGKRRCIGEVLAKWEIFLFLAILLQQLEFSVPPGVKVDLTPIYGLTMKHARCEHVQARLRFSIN
Summary of the method: (§2)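 10-pt 1:1 serial dilution in co-factor mix (DMSO stock 100 mM); 10 min preincubation, 37 °C; reaction at 37 °C. Readout: fluorescent metabolite of probe substrate. IC50 from signal vs [compound].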

CYP2D6 = CYP2D6 (Homo sapiens, UniProt P10635); assay: CYP2D6 inhibition (fluorescent substrate); format: in vitro ADME; details: CYP2D6, AMMC substrate; read-out: Cyp IC50 2D6
Sequence of CYP2D6 (P10635 whole entry): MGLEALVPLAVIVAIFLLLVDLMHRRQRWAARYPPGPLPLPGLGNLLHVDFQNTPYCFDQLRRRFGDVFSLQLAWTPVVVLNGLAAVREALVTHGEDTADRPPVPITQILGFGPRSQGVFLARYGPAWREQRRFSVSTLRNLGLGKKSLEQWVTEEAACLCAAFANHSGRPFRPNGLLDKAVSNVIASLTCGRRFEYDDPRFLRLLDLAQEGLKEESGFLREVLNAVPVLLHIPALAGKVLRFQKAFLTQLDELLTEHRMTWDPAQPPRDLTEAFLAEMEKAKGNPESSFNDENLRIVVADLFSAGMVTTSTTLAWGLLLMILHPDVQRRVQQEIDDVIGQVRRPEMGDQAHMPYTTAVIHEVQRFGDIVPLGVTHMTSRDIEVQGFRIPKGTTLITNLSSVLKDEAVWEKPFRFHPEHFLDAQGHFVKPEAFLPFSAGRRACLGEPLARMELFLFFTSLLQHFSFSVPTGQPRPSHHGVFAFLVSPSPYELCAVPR
Summary of the method: as §2

Sequence of B-Raf V600E (P15056 whole entry V600E): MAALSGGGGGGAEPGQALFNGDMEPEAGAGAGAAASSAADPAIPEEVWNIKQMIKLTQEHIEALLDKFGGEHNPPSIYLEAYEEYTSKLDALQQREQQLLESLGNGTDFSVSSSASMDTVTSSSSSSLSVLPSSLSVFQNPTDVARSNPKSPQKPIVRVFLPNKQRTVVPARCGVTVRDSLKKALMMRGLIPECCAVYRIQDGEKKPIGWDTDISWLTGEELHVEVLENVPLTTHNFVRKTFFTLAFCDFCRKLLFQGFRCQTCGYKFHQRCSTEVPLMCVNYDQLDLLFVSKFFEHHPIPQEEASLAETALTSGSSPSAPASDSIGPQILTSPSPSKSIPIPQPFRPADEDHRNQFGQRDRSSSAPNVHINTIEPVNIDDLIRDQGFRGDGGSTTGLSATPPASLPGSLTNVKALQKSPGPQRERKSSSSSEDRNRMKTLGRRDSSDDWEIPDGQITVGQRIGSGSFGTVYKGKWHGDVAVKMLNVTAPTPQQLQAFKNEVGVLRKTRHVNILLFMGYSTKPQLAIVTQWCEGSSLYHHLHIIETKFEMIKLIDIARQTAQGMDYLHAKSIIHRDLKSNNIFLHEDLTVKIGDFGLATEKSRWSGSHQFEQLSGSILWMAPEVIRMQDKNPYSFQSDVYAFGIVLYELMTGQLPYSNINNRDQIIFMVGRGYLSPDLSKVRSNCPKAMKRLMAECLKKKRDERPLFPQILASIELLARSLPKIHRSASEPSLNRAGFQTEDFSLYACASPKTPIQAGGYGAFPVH

| Structure (SMILES) | IC50 (B-Raf V600E) [nM] | IC50 (c-Raf-1) [nM] | IC50 (CYP1A2) [µM] | IC50 (CYP2D6) [µM] |
| --- | --- | --- | --- | --- |
| CCCS(=O)(=O)Nc1cccc(C(=O)c2c[nH]c3ncc(-c4cnc(OC)nc4)cc23)c1F [P-2407, Propane-1-sulfonic acid {2-fluoro-3-[5-(2-methoxy-pyrimidin-5-yl)-1H-pyrrolo[2,3-b]pyridine-3-carbonyl]-phenyl}-amide] | < 10 | < 10 | > 10 | > 10 |
| N#Cc1cnc2[nH]cc(C(=O)c3cccc(NS(=O)(=O)c4ccccc4F)c3F)c2c1 [P-2051, N-[3-(5-Cyano-1H-pyrrolo[2,3-b]pyridine-3-carbonyl)-2-fluoro-phenyl]-2-fluoro-benzenesulfonamide] | < 10 | < 100 | > 10 | > 10 |
| O=C(c1c(F)ccc(NS(=O)(=O)c2c(F)cccc2F)c1F)c1c[nH]c2nccc(Cl)c12 [P-2033, N-[3-(4-Chloro-1H-pyrrolo[2,3-b]pyridine-3-carbonyl)-2,4-difluoro-phenyl]-2,6-difluoro-benzenesulfonamide] | < 10 | < 10 | > 10 | > 10 |
| CCCS(=O)(=O)Nc1cccc(C(=O)c2c[nH]c3ncc(-c4cnc(N(C)C)nc4)cc23)c1F [P-2408, Propane-1-sulfonic acid {3-[5-(2-dimethylamino-pyrimidin-5-yl)-1H-pyrrolo[2,3-b]pyridine-3-carbonyl]-2-fluoro-phenyl}-amide] | < 10 | < 100 | > 10 | > 10 |
| N#Cc1cnc2[nH]cc(C(=O)c3c(F)ccc(NS(=O)(=O)c4ccccc4)c3F)c2c1 [P-2046, N-[3-(5-Cyano-1H-pyrrolo[2,3-b]pyridine-3-carbonyl)-2,4-difluoro-phenyl]-benzenesulfonamide] | < 10 | < 10 | > 10 | > 10 |
| N#Cc1cnc2[nH]cc(C(=O)c3c(F)ccc(NS(=O)(=O)c4c(F)cccc4F)c3F)c2c1 [P-2029, N-[3-(5-Cyano-1H-pyrrolo[2,3-b]pyridine-3-carbonyl)-2,4-difluoro-phenyl]-2,6-difluoro-benzenesulfonamide] | < 10 | < 10 | > 10 | > 10 |
| CCCS(=O)(=O)Nc1ccc(F)c(C(=O)c2c[nH]c3ncc(-c4cnc(N(C)C)nc4)cc23)c1F [P-2196, Propane-1-sulfonic acid {3-[5-(2-dimethylamino-pyrimidin-5-yl)-1H-pyrrolo[2,3-b]pyridine-3-carbonyl]-2,4-difluoro-phenyl}-amide] | < 10 | < 10 | > 10 | > 10 |
| CCCS(=O)(=O)Nc1ccc(F)c(C(=O)c2c[nH]c3ncc(-c4ccc(S(N)(=O)=O)cc4)cc23)c1F [P-2194, 4-{3-[2,6-Difluoro-3-(propane-1-sulfonylamino)-benzoyl]-1H-pyrrolo[2,3-b]pyridin-5-yl}-benzenesulfonamide] | < 10 | < 10 | > 10 | > 10 |
| CCCS(=O)(=O)Nc1ccc(F)c(C(=O)c2c[nH]c3ncc(-c4ccc(OCCCN(C)C)nc4)cc23)c1F [P-2178, Propane-1-sulfonic acid (3-{5-[6-(3-dimethylamino-propoxy)-pyridin-3-yl]-1H-pyrrolo[2,3-b]pyridine-3-carbonyl}-2,4-difluoro-phenyl)-amide] | < 10 | < 10 | > 10 | > 10 |
| N#Cc1ccnc2[nH]cc(C(=O)c3c(F)ccc(NS(=O)(=O)c4cccc(F)c4)c3F)c12 [P-2039, N-[3-(4-Cyano-1H-pyrrolo[2,3-b]pyridine-3-carbonyl)-2,4-difluoro-phenyl]-3-fluoro-benzenesulfonamide] | < 10 | < 10 | > 10 | > 10 |
| CCCS(=O)(=O)Nc1ccc(F)c(C(=O)c2c[nH]c3ncc(-c4cccc(S(C)(=O)=O)c4)cc23)c1F [P-2228, Propane-1-sulfonic acid {2,4-difluoro-3-[5-(3-methanesulfonyl-phenyl)-1H-pyrrolo[2,3-b]pyridine-3-carbonyl]-phenyl}-amide] | < 10 | < 10 | > 10 | > 10 |
| CCCS(=O)(=O)Nc1ccc(F)c(C(=O)c2c[nH]c3ncc(-c4cnc(C)nc4)cc23)c1F [P-2211, Propane-1-sulfonic acid {2,4-difluoro-3-[5-(2-methyl-pyrimidin-5-yl)-1H-pyrrolo[2,3-b]pyridine-3-carbonyl]-phenyl}-amide] | < 10 | < 10 | > 10 | > 10 |
| CCCS(=O)(=O)Nc1ccc(F)c(C(=O)c2c[nH]c3ncc(-c4ccc(OCCN5CCCC5)nc4)cc23)c1F [P-2233, Propane-1-sulfonic acid (2,4-difluoro-3-{5-[6-(2-pyrrolidin-1-yl-ethoxy)-pyridin-3-yl]-1H-pyrrolo[2,3-b]pyridine-3-carbonyl}-phenyl)-amide] | < 10 | < 10 | > 10 | > 10 |
| COc1ncc(-c2cnc3[nH]cc(C(=O)c4c(F)ccc(NS(=O)(=O)c5ccccc5F)c4F)c3c2)cn1 [P-2041, N-{2,4-Difluoro-3-[5-(2-methoxy-pyrimidin-5-yl)-1H-pyrrolo[2,3-b]pyridine-3-carbonyl]-phenyl}-2-fluoro-benzenesulfonamide] | < 10 | < 10 | > 10 | > 10 |
| CCCS(=O)(=O)Nc1ccc(F)c(C(=O)c2c[nH]c3ncc(-c4cnc(SC)nc4)cc23)c1F [P-2189, Propane-1-sulfonic acid {2,4-difluoro-3-[5-(2-methylsulfanyl-pyrimidin-5-yl)-1H-pyrrolo[2,3-b]pyridine-3-carbonyl]-phenyl}-amide] | < 10 | < 10 | > 10 | > 10 |
| CCCS(=O)(=O)Nc1ccc(F)c(C(=O)c2c[nH]c3ncc(-c4ccc(OCCCN5CCOCC5)nc4)cc23)c1F [P-2236, Propane-1-sulfonic acid (2,4-difluoro-3-{5-[6-(3-morpholin-4-yl-propoxy)-pyridin-3-yl]-1H-pyrrolo[2,3-b]pyridine-3-carbonyl}-phenyl)-amide] | < 10 | < 10 | > 10 | > 10 |
| N#Cc1ccnc2[nH]cc(C(=O)c3c(F)ccc(NS(=O)(=O)c4cccnc4)c3F)c12 [P-2077, Pyridine-3-sulfonic acid [3-(4-cyano-1H-pyrrolo[2,3-b]pyridine-3-carbonyl)-2,4-difluoro-phenyl]-amide] | < 10 | < 10 | > 10 | > 10 |
| N#Cc1cnc2[nH]cc(C(=O)c3cccc(NS(=O)(=O)c4cc(F)ccc4F)c3F)c2c1 [P-2052, N-[3-(5-Cyano-1H-pyrrolo[2,3-b]pyridine-3-carbonyl)-2-fluoro-phenyl]-2,5-difluoro-benzenesulfonamide] | < 10 | < 10 | > 10 | > 10 |
| CCCS(=O)(=O)Nc1ccc(F)c(C(=O)c2c[nH]c3ncc(-c4ccc(Cl)nc4)cc23)c1F [P-2154, Propane-1-sulfonic acid {3-[5-(6-chloro-pyridin-3-yl)-1H-pyrrolo[2,3-b]pyridine-3-carbonyl]-2,4-difluoro-phenyl}-amide] | < 100 | < 10 | > 10 | > 10 |
